Assay results from patent US20210353611A1, “METHODS OF TREATING AMYOTROPHIC LATERAL SCLEROSIS” (Yeda Research and Development Co. Ltd., priority 2018, published 2021).
Where a name gives a salt, the structure may show the parent alone.

How the values were obtained:
[1] = test system: SOD1-Tg mice; assay: Motor function tests (rotarod, hanging-wire grip test, neurological scoring) in ALS mouse model; type: in vivo; conditions: subcutaneously implanted mini osmotic pumps, continuous administration; vs vehicle-treated SOD1-Tg mice
Description: G93A mSOD1-Tg mice on a C57BL/6 background were used. In all experiments, age- and gender-matched mice were used and WT littermates as controls. Mice were 40 days of age at the beginning of experiments. All mice were kept at a strict 24 hr reverse light-dark cycle, with lights being turned on from 10 pm to 10 am. Tryptophan-deficient diet (A10033Yi, Research diets, NJ, USA) was applied from the age of 40 days until the experimental end-point. For antibiotic treatment, mice were given a combination of vancomycin (0.5 g/l), ampicillin (1 g/l), kanamycin (1 g/l), and metronidazole (1 g/l) in their drinking water from the age of 40 days as previously described (Levy et al., 2015). […]
Vehicle control pumps contained equivalent volume of Ultra-pure water. […] The cut was then closed with sterile surgical clips and the animals were carefully monitored for any signs of stress, bleeding, pain, or abnormal behavior. […]
Rotarod: To assess motor coordination and balance, each mouse was tested with a rotarod device (Panlab Le8500 Harvard Apparatus, Spain), in acceleration speed mode (increasing from 4 rpm to 40 rpm during 10 min), with a maximum test time of 5 min. […] Each mouse was recorded three times at the ages of 60, 80, 100, 120 and 140 days. The apparatus automatically recorded the elapsed time when the mouse fell from the spindle. […]

[2] = NAM levels in CSF and sera of mice (targeted metabolomics); conditions: NAM 49.28 mg/kg/week s.c. osmotic pumps; SOD1-Tg mice vs water-treated controls
Procedure: Mice were anesthetized by i.p. injection of ketamine (100 mg/kg) and xylazine (10 mg/kg). The skin of the neck was shaved, and the mouse was placed prone on the stereotaxic instrument. The head was secured with the head adaptors. […] Under the dissection microscope, the subcutaneous tissue and muscles (m. biventer cervicis and m. rectus capitis dorsalis major) were separated by blunt dissection with forceps. A pair of micro-retractors is used to hold the muscles apart. The dura mater was blotted dry with sterile cotton swab. CSF was collected using a capillary tube to penetrate into the cisterna magna through the dura mater, lateral to the arteria dorsalis spinalis, immediately frozen in liquid nitrogen and stored at −80° C.
The samples (in 50% Methanol) were dried in a speed vac to blow off the methanol before drying to completion in a lyophilizer. All samples were re-dissolved in 100 μl of 0.1% formic acid.
Liquid Chromatography: Liquid chromatography was performed on a Waters Acquity UPLC system. […] Mobile phase consisted of (A) water and (B) acetonitrile each containing 0.1% formic acid. […]
Mass Spectrometry: LC-MS/MS analysis was performed on a Waters Xevo triple quadrupole equipped with a Zspray ESI source. […] TargetLynx (Waters) was used for Qualitative and Quantitative analysis.

[3] = test system: SOD1-Tg mice; assay: Survival of SOD1-Tg mice; type: in vivo, mouse; conditions: NAM s.c. osmotic pumps vs vehicle; p=0.1757, Log-rank test
Procedure: From the age of 130 days, mice were monitored daily. The endpoint was defined by reaching neurological score of 4 and/or more than 15% reduction in body weight. The probability of survival was calculated using the Kaplan-Meier method, and statistical analysis was performed using a log-rank test.

SMILES	ALS symptoms / behavioral and neurological motor tests [1]	NAM levels in sera [2]	Survival [3]
NC(=O)c1cccnc1 [NAM, Nicotinamide]	performed significantly better	significantly increased	non-significantly trend to improve survival
O=S(=O)(O)Oc1ccccc1 [Phenol sulfate]	did not affect ALS symptoms		
